# Assay: method code SF-AS, from DOI: 10.1021/jm00294a001, PMID: 5116225
row,SMILES,logP
1,C=C1C(=O)O[C@@H]2[C@H]1CC[C@H](C)[C@]1(O)CCC(=O)[C@@]21C,0.83
2,C=C1C(=O)OC2C1C(OC(=O)C(C)=CC)CC(O)(CCl)C1C(OC(C)=O)C=C(C)C21O (centres undefined),1.42
3,C=C1C(=O)O[C@@H]2/C=C(/C)C[C@H](O)/C=C(/C)CC[C@@H]12,1.23
4,C=C1C(=O)OC2C1CCC(C)C1(O)C=CC(=O)C21C (centres undefined),0.77
5,C=C1C(=O)OC2C=C(C)C(OC(C)=O)CC(O)C(C)=CC(OC(=O)C(C)=CC)C12 (centres undefined),1.16
6,C=C1C(=O)O[C@H]2[C@H]1[C@@H](OC(=O)C=C(C)C)CC1=C[C@@H](C[C@@]3(C)O[C@H]23)OC1=O,1.05
7,C=CC12COC(=O)C(=C)C1C(O)C1C(=C)C(=O)OC1C2 (centres undefined),-0.14
8,C=C[C@@]12COC(=O)C(=C)[C@@H]1[C@H]1OC(=O)C(=C)[C@@H]1[C@@H](O)C2,0.31
9,C=CC12COC(=O)C(=C)C1C1OC(=O)C(=C)C1C(OC(C)=O)C2 (centres undefined),0.79
10,C=C1C(=O)O[C@H]2CC3=C[C@@H](C[C@@]4(C)O[C@@H]4[C@@H](O)[C@H]12)OC3=O,-0.64
11,C=C1C(=O)O[C@H]2C[C@@H](C)[C@@H]3C=CC(=O)[C@@]3(C)C[C@H]12,1.17
12,C=C1C(=O)O[C@@H]2C[C@@H](C)[C@@H]3C=CC(=O)[C@@]3(C)[C@@H](O)[C@H]12,0.87
13,C=C1C(=O)O[C@H]2[C@H]1[C@H](OC(=O)/C(C)=C\C)C[C@]1(CO1)[C@@H]1[C@H](OC(C)=O)C=C(C)[C@]21O,0.76
14,C=C1C(=O)OC2C1C(OC(=O)C(C)=CC)CC(=C)C1C(O)C3OC3(C)C21O (centres undefined),1.69
15,C=C1C(=O)O[C@@H]2[C@H]1CC[C@H](C)[C@@H]1C[C@@H](O)C(=O)[C@@]21C,0.66
16,C=C1C(=O)OC2C1C(O)CC(C)C1CCC(=O)C12C (centres undefined),0.23
17,C=C1C(=O)OC2C=C(C)C3(O)C=CC(C)(CC(OC(=O)C(=CC)COC(C)=O)C12)O3 (centres undefined),1.19
18,C=C1C(=O)OC2C=C(C)C(O)CC=C(C)CCC12 (centres undefined),1.4
19,C=C[C@@]12COC(=O)C(=C)[C@@H]1[C@H]1OC(=O)C(=C)[C@@H]1[C@@H](OC(=O)C(=C)C)C2,1.56
20,C=CC12COC(=O)C(=C)C1C(OC(C)=O)C1C(=C)C(=O)OC1C2 (centres undefined),0.25
21,C=C1C(=O)OC2CC(C)=CCC(OC(C)=O)C(C)=CC(OC(C)=O)C12 (centres undefined),1.14
22,C=C(C)C(=O)O[C@H]1CC2=C[C@@H](C[C@@]3(C)O[C@@H]3[C@H]3OC(=O)C(=C)[C@@H]31)OC2=O,0.69
23,C=C1C(=O)OC2C1CCC(C)C1C=CC(=O)C12C (centres undefined),1.03
24,C=C1C(=O)OC2C=C(C)C3C(OC(C)=O)CC(O)C3CC12 (centres undefined),1.09
